# Results: ChEMBL document CHEMBL4602621, “Optimization of cyclic sulfamide derivatives as 11β-hydroxysteroid dehydrogenase 1 inhibitors for the potential treatment of ischemic brain injury” (Bioorg Med Chem Lett, 2020)
# pIC50: −log10 of the molar value. Active and inactive are the calls of the source. The calls are words filed in the database; no cut-off is given here.
# How the values were obtained:
# [1] = molecular target: 11-beta-hydroxysteroid dehydrogenase 1 (Mus musculus, UniProt P50172); assay: Inhibition of mouse 11beta-HSD1 expressed in CHOK1 cells using XL665-labeled cortisol as substrate measured after 24 hrs by HTRF assay; format: cell-based, CHO-K1
# [2] = molecular target: 11-beta-hydroxysteroid dehydrogenase 1 (Mus musculus) (UniProt P50172); assay: In vivo inhibition of 11 beta-HSD1 in brain of mouse at 30 mg/kg, po relative to control; format: functional, organism-based
# [3] = molecular target: 11-beta-hydroxysteroid dehydrogenase 1 (Mus musculus) (UniProt P50172); assay: In vivo inhibition of 11 beta-HSD1 in brain of mouse at 20 mg/kg, po relative to control; format: functional, organism-based
# [4] = Ratio of drug concentration in brain to plasma of mouse at 10 mg/kg, ip administered as single dose measured at 0.5 hrs; format: ADME, organism-based; details: read-out: BPR
# [5] = molecular target: 11-beta-hydroxysteroid dehydrogenase 1 (Homo sapiens, UniProt P28845); assay: Inhibition of human 11beta-HSD1 expressed in CHOK1 cells using XL665-labeled cortisol as substrate measured after 24 hrs by HTRF assay; format: cell-based, CHO-K1
# [6] = system: Mus musculus; assay: (§1) Neuroprotective activity in mouse model of middle cerebral artery occlusion-induced ischemia-reperfusion injury assessed as reduction in cerebral infarct area at 10 to 30 mg/kg, ip administered twice at 1 to 5 hrs post induction of ischemia followed by 24 hrs of reperfusion by TTC staining based assay; format: functional, organism-based
# [7] = molecular target: 11-beta-hydroxysteroid dehydrogenase 1 (Mus musculus) (UniProt P50172); assay: Ex vivo inhibition of 11 beta-HSD1 in brain of iv dosed mouse by measuring cortisol amount after 1 hr by ELISA; format: functional, organism-based
# [8] = Ratio of drug concentration in brain to plasma of mouse at 10 mg/kg, ip administered as single dose measured at 3 hrs; format: ADME, organism-based; details: read-out: BPR
# [9] = Drug level in brain of mouse at 10 mg/kg, ip administered as single dose measured at 0.5 hrs; format: ADME, organism-based; details: read-out: Drug uptake
# [10] = system: Mus musculus; assay: as §1, with “as” for “as reduction in”, “volume” for “area”, “at” for “at 10 to”, “assay (reference value: 90.3 +/- 6 mm3)” for “assay”; format: functional
# [11] = Drug level in plasma of mouse at 10 mg/kg, ip administered as single dose measured at 3 hrs; format: ADME, organism-based
# [12] = Drug level in brain of mouse at 10 mg/kg, ip administered as single dose measured at 3 hrs; format: ADME, organism-based; details: read-out: Drug uptake
# [13] = system: Mus musculus; assay: as §1, with “as” for “as reduction in”, “volume” for “area”, “10” for “10 to 30”, “assay (reference value: 90.3 +/- 6 mm3)” for “assay”; format: functional
# [14] = Drug level in plasma of mouse at 10 mg/kg, ip administered as single dose measured at 0.5 hrs; format: ADME, organism-based
# 11-beta-hydroxysteroid dehydrogenase 1 (Mus musculus, UniProt P50172), sequence (P50172 whole entry): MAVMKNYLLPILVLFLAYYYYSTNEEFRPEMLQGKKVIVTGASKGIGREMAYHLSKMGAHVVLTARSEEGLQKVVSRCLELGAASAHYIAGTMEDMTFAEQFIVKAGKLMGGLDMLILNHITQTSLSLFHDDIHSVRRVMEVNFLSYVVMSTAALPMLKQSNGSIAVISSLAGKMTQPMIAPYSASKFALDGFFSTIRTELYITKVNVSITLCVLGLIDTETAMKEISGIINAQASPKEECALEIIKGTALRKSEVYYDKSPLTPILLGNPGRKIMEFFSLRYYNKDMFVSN
# 11-beta-hydroxysteroid dehydrogenase 1 (Mus musculus), sequence (P50172 whole entry, looked up): as the sequence (P50172 whole entry) above
# 11-beta-hydroxysteroid dehydrogenase 1 (Homo sapiens, UniProt P28845), sequence (P28845 whole entry, the tested form may be a part): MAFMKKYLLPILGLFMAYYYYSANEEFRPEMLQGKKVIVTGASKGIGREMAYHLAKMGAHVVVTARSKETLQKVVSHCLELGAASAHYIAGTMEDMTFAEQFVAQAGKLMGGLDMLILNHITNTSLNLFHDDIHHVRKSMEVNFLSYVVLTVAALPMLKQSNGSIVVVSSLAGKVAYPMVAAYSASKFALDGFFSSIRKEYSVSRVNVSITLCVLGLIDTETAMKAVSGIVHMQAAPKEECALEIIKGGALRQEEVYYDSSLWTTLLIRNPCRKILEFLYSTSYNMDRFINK
SMILES,pIC50 [1],inhibition [3] [%],other results
CC1CN(CC(=O)NC2C3CC4CC2CC(C(N)=O)(C4)C3)S(=O)(=O)N(c2ccc(C(F)(F)F)cn2)C1 (stereo not given),6.03,,
CC(C)C1CN(CC(=O)NC2C3CC4CC2CC(C(N)=O)(C4)C3)S(=O)(=O)N(c2c(Cl)cc(C(F)(F)F)cc2Cl)C1 (stereo not given),5.55,,
CC1CN(CC(=O)NC2C3CC4CC2CC(C(N)=O)(C4)C3)S(=O)(=O)N(c2c(Cl)cc(-c3ccccc3)cc2Cl)C1 (stereo not given),6.76,,
CC1CN(CC(=O)NC2C3CC4CC2CC(C(N)=O)(C4)C3)S(=O)(=O)N(c2c(Cl)cc(Cl)cc2Cl)C1 (stereo not given),8.70,,inhibition [2]: 66%
CCC1CN(CC(=O)NC2C3CC4CC2CC(C(N)=O)(C4)C3)S(=O)(=O)N(c2c(Cl)cc(C(F)(F)F)cc2Cl)C1 (stereo not given),6.16,,
CC1CN(CC(=O)NC2C3CC4CC2CC(C(N)=O)(C4)C3)S(=O)(=O)N(c2ccccn2)C1 (stereo not given),5.92,,
CC1CN(CC(=O)NC2C3CC4CC2CC(C(N)=O)(C4)C3)S(=O)(=O)N(c2c(Cl)cc(Br)cc2Cl)C1 (stereo not given),,41.1,
CC1CN(CC(=O)NC2C3CC4CC2CC(C(N)=O)(C4)C3)S(=O)(=O)N(c2c(Cl)cc(-c3ccco3)cc2Cl)C1 (stereo not given),7.17,,
CC1CN(CC(=O)NC2C3CC4CC2CC(C(N)=O)(C4)C3)S(=O)(=O)N(c2c(Cl)cc(C(F)(F)F)cc2Cl)C1 (stereo not given),9.00,82,Kp at 0.5 h [4]: 0.38; pIC50 [5]: 9.00; Activity [6]: Active; inhibition [7]: Dose-dependent effect; Kp at 3 h [8]: 0.53; concentration at 0.5 h [9]: 1780 ng/mL; Activity [10]: 59 mm3; concentration at 3 h [11]: 1310 ng/mL; concentration at 3 h [12]: 670 ng/mL; Activity [13]: 66.2 mm3; concentration at 0.5 h [14]: 4770 ng/mL
NC(=O)C12CC3CC(C1)C(NC(=O)CN1CCCN(c4c(Cl)cc(C(F)(F)F)cc4Cl)S1(=O)=O)C(C3)C2 (stereo not given),,45.8,
Cc1cc(Cl)c(N2CC(C)CN(CC(=O)NC3C4CC5CC3CC(C(N)=O)(C5)C4)S2(=O)=O)c(Cl)c1 (stereo not given),8.43,69,
